The values below come from patent US7534576B2, “Method and a device for the evaluation of biopolymer fitness” (Olympus Corporation, priority 1993, dated 2009).

{Bodipy-C6} = Bodipy fluorophore attached via a 5'-C6 linker

The subject of data set [1] is viral single-strand DNA of bacteriophage M13 (M13mp18 (+) DNA). Put plainly: FCS of association of Bodipy-labeled primer with M13 single-strand DNA in solution. Type of data set: binding. To be noted: 40° C. The procedure:
The oligonucleotide is labeled with Bodipy (Molecular Probes) at the 5′-C6 position. The course of the association reaction with time was measured according to the invention in solution at 40° C. The solution contained 50 nM oligonucleotide, 50 nM of M13mp18 (+) DNA in […] tris buffer, pH 7.5, and 0.18 M sodium chloride. […] Autocorrelation was determined after 0, 0.5, 1, 2, 4, 8, 16, 32, 64, 128, 192, and 256 minutes. The diffusion time of the free primer is 0.17 ms, and 2.9 ms when complex-bound. […] A reassocation rate of 0.07 min^−1 results.

Data set [2] deals with T1, EGF receptor (Rattus norvegicus, UniProt G3V6K6).
T1 construct: endogenous in cells; host or cells: NBD2 rat bladder cells (tumor-derived)
Put plainly: FCS of tetramethylrhodamine-labeled EGF associating with cell-bound EGF receptor at the outer cell membrane. The data set is classed as binding. From the text: (§1) FIGS. 26 to 28 show the use of the FCS method according to the invention • (i) for the determination of the behavior of a fluorescence labeled ligand with respect to association with a receptor of the outer cell membrane, • (ii) for distinguishing between bound and free ligand, and/or • (iii) for measuring ligand mobility in the case of a passage into the cytosol.
The cells are surface-fixed on Petri dishes in PBS buffer (phosphate buffered saline). […] For excitation, laser light of 500 nm wavelength of an argon laser (0.5 mW) had been chosen. […] Its concentration was 6 nM.

Data set [3] deals with NBD2 rat bladder cells. In words: FCS of internalized EGF mobility with the measuring volume in the cytosol. The data set is classed as cell-based. To be noted: FIG. 27.
From the text: as §1
The cells are surface-fixed on Petri dishes in PBS buffer (phosphate buffered saline). They had been grown beforehand in standard medium until a confluent monolayer had been reached. The medium contained EGF labeled with tetramethylrhodamine. For excitation, laser light of 500 nm wavelength of an argon laser (0.5 mW) had been chosen. […] Its concentration was 6 nM.

In data set [1] (50 nM oligonucleotide, 50 nM M13mp18 (+) DNA, FIG. 29), “5′-TGACCGGCAGCAAAATGT-3′ (DNA, 5' {Bodipy-C6}, backbone not given here) [M13/pUC (−21) primer, DNA oligonucleotide primer complementary to bacteriophage M13 single-strand DNA]” came in with a reassocation rate of 0.07 min⁻¹. In addition, the “diffusion time of the free primer” value in data set [1] (10 nM tris buffer pH 7.5, 0.18 M sodium chloride) is listed as 0.17 ms. Moreover, the “diffusion time of primer when complex-bound” value in data set [1] (bound to M13 DNA) was 2.9 ms.

As for human epidermal growth factor (EGF), the “EGF receptors per measuring volume still retaining the ligand bound with high affinity” value in data set [2] (after 30 minutes of washing, FIG. 26c) is recorded as “about 0.5”. For the same substance, the “τDfree of free EGF factor (printed as rotational diffusion coefficient)” value in data set [2] (free EGF, 6 nM, PBS, FIG. 26a) turned out to be 0.145 ms. In addition, in data set [2] (receptor bound in cell membrane, FIG. 26b), the “diffusion time τDcomplex of receptor bound complex” value is given as 14.54 ms. In addition, the “internalized EGF with the same mobility as the free factor” value in data set [3] (cytosol) was found to be 62%. For the same substance, the “internalized EGF hindered in mobility” value in data set [3] (measuring volume within the cytosol) is 38%.
